{"source": "ChEMBL document CHEMBL5131567", "about": "“3,5,7-Substituted Pyrazolo[4,3-d]Pyrimidine Inhibitors of Cyclin-Dependent Kinases and Cyclin K Degraders” (J Med Chem, 2022)", "key": {"[1]": {"assay": "Antiproliferative activity against human MINO cells assessed as cell growth inhibition measured after 72 hrs by resazurin dye based microplate reader analysis", "assay_type": "functional"}, "[2]": {"assay": "Antiproliferative activity against human UPF1H cells assessed as cell growth inhibition measured after 72 hrs by resazurin dye based microplate reader analysis", "assay_type": "functional"}, "[3]": {"target": "Cyclin-dependent kinase 2/cyclin E1 (Homo sapiens, UniProt P24941)", "assay": "Inhibition of His-tagged CDK2/cyclin E1 (unknown origin) expressed in Sf9 cells using histone H1 as substrate in presence of ATP and [gamma33-P]ATP by radioisotope filter binding assay", "assay_type": "cell-based"}, "[4]": {"test_system": "NU-DUL-1", "assay": "Antiproliferative activity against human NU-DUL-1 cells assessed as cell growth inhibition measured after 72 hrs by resazurin dye based microplate reader analysis", "assay_type": "functional"}, "[5]": {"test_system": "DB", "assay": "Antiproliferative activity against human DB cells assessed as cell growth inhibition measured after 72 hrs by resazurin dye based microplate reader analysis", "assay_type": "functional"}, "[6]": {"assay": "Antiproliferative activity against human OCI-Ly2 cells assessed as cell growth inhibition measured after 72 hrs by resazurin dye based microplate reader analysis", "assay_type": "functional"}, "[7]": {"test_system": "OCI-LY19", "assay": "Antiproliferative activity against human OCILY19 cells assessed as cell growth inhibition measured after 72 hrs by resazurin dye based microplate reader analysis", "assay_type": "functional"}, "[8]": {"test_system": "U2932", "assay": "Antiproliferative activity against human U2932 cells assessed as cell growth inhibition measured after 72 hrs by resazurin dye based microplate reader analysis", "assay_type": "functional"}, "[9]": {"test_system": "SUD4", "assay": "Antiproliferative activity against human SU-DHL-4 cells assessed as cell growth inhibition measured after 72 hrs by resazurin dye based microplate reader analysis", "assay_type": "functional"}, "[10]": {"assay": "Antiproliferative activity against human Ri-1 cells assessed as cell growth inhibition measured after 72 hrs by resazurin dye based microplate reader analysis", "assay_type": "functional"}, "[11]": {"target": "Cyclin-dependent kinase 2/G1/S-specific cyclin-D1 (Homo sapiens, UniProt P24385+P24941)", "assay_type": "cell-based, Sf9"}, "[12]": {"assay": "Inhibition of GST-tagged human CDK5/p25 expressed in Sf9 cells using histone H1 as substrate in presence of ATP and [gamma33-P] ATP by radioisotope filter binding assay"}, "[13]": {"target": "CDK9/cyclin T1 (Homo sapiens, UniProt P50750)", "sequence (O60563 whole entry)": "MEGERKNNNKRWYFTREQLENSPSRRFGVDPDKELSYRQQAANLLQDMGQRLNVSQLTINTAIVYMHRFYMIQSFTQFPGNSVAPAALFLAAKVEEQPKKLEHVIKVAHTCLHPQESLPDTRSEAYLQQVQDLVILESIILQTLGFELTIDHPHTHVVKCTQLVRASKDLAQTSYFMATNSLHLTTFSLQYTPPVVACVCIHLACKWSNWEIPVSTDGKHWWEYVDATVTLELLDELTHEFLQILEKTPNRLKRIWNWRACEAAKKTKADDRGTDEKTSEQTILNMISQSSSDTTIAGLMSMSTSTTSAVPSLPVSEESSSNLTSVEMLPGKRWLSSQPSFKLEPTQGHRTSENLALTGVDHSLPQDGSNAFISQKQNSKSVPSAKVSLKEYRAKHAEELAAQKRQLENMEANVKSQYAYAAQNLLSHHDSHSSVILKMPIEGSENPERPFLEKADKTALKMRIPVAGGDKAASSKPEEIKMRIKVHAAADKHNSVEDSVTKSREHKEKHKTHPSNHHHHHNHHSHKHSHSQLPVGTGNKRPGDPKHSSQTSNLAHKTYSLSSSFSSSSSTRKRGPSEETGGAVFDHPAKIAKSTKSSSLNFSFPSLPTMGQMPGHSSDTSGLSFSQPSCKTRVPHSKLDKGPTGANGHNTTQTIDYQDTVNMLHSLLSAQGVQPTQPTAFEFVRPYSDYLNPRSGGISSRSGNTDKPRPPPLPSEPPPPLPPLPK", "sequence (P50750 whole entry)": "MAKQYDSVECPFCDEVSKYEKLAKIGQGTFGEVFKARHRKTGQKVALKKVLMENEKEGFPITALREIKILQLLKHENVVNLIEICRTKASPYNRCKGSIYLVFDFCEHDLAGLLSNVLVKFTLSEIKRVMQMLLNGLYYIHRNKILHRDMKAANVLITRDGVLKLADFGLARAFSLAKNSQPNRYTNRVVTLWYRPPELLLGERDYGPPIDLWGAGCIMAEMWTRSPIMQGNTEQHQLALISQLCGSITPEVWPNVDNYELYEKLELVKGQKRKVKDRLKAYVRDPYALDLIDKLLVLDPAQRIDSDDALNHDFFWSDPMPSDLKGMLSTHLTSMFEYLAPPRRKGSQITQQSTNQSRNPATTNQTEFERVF", "assay": "Inhibition of GST-tagged human CDK9/Cyclin T1 expressed in Sf9 cells using (YSPTSPS)2KK peptide as substrate in presence of ATP and [gamma33-P] ATP by radioisotope filter binding assay", "assay_type": "cell-based"}, "[14]": {"target": "CDK12/Cyclin K (Homo sapiens, UniProt Q9NYV4)", "sequence (O75909 whole entry)": "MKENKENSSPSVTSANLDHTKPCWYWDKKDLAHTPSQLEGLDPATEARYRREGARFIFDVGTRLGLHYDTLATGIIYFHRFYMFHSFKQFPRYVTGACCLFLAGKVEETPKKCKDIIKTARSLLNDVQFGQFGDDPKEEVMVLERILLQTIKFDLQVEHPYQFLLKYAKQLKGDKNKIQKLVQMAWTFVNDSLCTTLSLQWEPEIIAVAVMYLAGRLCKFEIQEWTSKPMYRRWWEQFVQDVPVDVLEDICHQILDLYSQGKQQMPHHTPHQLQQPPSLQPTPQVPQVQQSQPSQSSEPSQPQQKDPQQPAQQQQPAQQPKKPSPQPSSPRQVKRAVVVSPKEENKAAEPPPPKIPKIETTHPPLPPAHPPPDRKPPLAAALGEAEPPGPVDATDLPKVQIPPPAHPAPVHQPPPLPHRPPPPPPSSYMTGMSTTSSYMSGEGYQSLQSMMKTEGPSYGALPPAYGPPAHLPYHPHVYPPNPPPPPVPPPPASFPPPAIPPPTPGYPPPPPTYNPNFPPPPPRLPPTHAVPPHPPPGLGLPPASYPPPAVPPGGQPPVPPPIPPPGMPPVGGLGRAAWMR", "sequence (Q9NYV4 whole entry)": "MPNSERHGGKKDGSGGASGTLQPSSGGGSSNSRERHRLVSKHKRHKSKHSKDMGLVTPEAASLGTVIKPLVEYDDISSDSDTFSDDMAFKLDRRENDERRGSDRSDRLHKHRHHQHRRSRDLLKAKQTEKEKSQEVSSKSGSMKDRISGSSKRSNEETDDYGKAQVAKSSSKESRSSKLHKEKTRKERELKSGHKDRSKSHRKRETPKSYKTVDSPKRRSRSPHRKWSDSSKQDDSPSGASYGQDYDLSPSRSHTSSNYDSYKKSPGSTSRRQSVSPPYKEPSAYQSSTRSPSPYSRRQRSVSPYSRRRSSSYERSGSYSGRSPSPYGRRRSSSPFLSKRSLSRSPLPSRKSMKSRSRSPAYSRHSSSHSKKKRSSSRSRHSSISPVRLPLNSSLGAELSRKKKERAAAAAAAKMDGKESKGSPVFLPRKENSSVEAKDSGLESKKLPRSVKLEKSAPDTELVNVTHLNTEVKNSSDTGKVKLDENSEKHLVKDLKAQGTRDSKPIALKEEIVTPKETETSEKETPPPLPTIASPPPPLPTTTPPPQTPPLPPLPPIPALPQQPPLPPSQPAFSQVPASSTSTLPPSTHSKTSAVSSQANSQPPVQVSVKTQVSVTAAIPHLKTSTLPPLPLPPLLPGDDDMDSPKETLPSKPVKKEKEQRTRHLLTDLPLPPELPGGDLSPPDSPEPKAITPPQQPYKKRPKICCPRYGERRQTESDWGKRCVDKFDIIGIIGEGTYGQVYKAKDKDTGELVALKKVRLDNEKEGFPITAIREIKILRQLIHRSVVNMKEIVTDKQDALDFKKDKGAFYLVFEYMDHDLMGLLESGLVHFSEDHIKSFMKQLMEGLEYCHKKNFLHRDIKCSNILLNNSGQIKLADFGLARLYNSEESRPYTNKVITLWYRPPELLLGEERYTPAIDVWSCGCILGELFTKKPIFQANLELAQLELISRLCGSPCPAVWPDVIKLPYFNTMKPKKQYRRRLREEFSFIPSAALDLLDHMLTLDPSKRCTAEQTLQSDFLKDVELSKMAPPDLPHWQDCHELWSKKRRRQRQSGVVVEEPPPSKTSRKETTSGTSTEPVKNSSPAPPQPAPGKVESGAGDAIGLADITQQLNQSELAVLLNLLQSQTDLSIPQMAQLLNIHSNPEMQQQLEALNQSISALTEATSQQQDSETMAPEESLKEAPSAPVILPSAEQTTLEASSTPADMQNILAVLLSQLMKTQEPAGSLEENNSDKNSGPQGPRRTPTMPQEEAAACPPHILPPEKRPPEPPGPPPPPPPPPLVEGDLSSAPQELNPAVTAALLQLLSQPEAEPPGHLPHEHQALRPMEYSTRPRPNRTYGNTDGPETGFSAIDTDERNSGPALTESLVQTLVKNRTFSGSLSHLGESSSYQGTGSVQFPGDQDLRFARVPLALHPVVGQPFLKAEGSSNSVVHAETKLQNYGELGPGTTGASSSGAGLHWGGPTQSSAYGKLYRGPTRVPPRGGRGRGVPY", "assay": "Inhibition of GST-tagged human CDK12/Cyclin K expressed in Sf9 cells using RBER-IRStide peptide as substrate in presence of ATP and [gamma33-P] ATP by radioisotope filter binding assay"}, "[15]": {"target": "Cyclin-dependent kinase 13/Cyclin-K (Homo sapiens, UniProt Q14004)", "sequence (Q14004 whole entry)": "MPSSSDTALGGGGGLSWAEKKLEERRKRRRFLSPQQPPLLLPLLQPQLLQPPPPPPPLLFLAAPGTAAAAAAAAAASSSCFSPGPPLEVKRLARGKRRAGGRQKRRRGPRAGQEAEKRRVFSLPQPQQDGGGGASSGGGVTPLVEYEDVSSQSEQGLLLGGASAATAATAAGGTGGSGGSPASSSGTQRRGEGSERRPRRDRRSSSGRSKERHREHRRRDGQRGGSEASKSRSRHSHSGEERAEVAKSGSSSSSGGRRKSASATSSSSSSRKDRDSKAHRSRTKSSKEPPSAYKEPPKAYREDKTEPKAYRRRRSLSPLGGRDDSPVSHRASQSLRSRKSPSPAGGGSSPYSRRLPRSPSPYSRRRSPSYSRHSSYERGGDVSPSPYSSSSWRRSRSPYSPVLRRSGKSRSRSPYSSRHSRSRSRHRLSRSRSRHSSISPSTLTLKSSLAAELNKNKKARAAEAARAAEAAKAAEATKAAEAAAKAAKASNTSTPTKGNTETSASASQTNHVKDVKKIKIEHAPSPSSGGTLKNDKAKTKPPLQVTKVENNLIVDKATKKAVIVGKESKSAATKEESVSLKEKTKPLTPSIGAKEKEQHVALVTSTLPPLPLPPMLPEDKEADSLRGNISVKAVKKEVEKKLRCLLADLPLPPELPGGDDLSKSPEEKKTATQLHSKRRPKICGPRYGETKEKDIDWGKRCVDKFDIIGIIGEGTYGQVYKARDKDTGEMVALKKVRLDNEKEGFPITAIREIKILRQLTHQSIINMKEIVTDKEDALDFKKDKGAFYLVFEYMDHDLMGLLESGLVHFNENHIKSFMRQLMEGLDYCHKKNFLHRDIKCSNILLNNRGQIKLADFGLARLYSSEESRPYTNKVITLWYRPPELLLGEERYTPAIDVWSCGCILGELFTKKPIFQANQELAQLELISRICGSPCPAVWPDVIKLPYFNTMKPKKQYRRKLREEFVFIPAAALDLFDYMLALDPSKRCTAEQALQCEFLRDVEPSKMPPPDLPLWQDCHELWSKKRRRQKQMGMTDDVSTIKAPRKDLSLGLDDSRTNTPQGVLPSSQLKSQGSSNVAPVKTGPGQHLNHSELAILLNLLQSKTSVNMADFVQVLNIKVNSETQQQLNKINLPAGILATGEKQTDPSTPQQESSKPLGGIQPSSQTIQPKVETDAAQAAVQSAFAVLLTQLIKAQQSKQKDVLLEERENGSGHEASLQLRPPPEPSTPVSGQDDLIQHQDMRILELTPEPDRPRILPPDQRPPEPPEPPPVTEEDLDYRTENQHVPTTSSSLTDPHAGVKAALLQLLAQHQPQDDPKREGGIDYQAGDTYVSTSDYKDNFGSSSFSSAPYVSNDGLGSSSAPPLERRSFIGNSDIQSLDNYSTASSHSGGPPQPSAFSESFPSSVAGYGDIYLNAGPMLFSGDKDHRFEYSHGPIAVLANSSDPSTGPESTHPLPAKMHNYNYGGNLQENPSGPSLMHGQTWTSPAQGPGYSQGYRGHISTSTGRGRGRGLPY", "sequence (O75909 whole entry, further chain)": "as the sequence (O75909 whole entry) above", "assay": "Inhibition of GST-tagged human CDK13/Cyclin K expressed in Sf9 cells using RBER-IRStide peptide as substrate in presence of ATP and [gamma33-P] ATP by radioisotope filter binding assay"}, "[16]": {"test_system": "MINO", "assay": "Inhibition of CDK in human MINO cells assessed as dephosphorylation of C-terminus of RNA polymerase II at serine 2 incubated for 2 hrs by immunoblotting analysis", "assay_type": "cell-based", "conditions": "dose 0.005-5 µM, DDE = dose-dependent effect"}, "[17]": {"test_system": "MINO", "assay": "Inhibition of CDK in human MINO cells assessed as dephosphorylation of C-terminus of RNA polymerase II at serine 5 incubated for 2 hrs by immunoblotting analysis", "assay_type": "cell-based", "conditions": "dose 0.005-5 µM, DDE = dose-dependent effect"}, "[18]": {"test_system": "MINO", "assay": "Inhibition of CDK in human MINO cells assessed as dephosphorylation of retinoblastoma protein incubated for 2 hrs by immunoblotting analysis", "assay_type": "cell-based", "conditions": "dose 0.005-5 µM, DDE = dose-dependent effect"}, "[19]": {"test_system": "MINO", "assay": "Downregulation of mcl-1 levels in human MINO cells incubated for 2 hrs by immunoblotting analysis", "assay_type": "functional, cell-based", "conditions": "dose 2.5-40 nM, DDE = dose-dependent effect"}, "[20]": {"test_system": "MINO", "assay": "Downregulation of cyclin D1 levels in human MINO cells incubated for 24 hrs by immunoblotting analysis", "assay_type": "functional, cell-based", "conditions": "dose 2.5-40 nM, DDE = dose-dependent effect"}, "[21]": {"test_system": "MINO", "assay": "Downregulation of CDK4 levels in human MINO cells incubated for 24 hrs by immunoblotting analysis", "assay_type": "functional, cell-based", "conditions": "dose 2.5-40 nM, DDE = dose-dependent effect"}, "[22]": {"test_system": "MINO", "assay": "Downregulation of RB levels in human MINO cells incubated for 24 hrs by immunoblotting analysis", "assay_type": "functional, cell-based", "conditions": "dose 2.5-40 nM, DDE = dose-dependent effect"}, "[23]": {"test_system": "MINO", "assay": "Downregulation of cyclin K levels in human MINO cells at 5 nM incubated for 2 hrs by immunoblotting analysis", "assay_type": "functional, cell-based"}, "[24]": {"test_system": "MINO", "assay": "Downregulation of cyclin K levels in human MINO cells at 50 nM incubated for 2 hrs by immunoblotting analysis", "assay_type": "functional, cell-based"}, "[25]": {"test_system": "VFN-D2", "assay": "In vivo induction of degradation of cyclin K in patient-derived VFN-D2 cells xenografted in NSG mouse assessed as reduction in cyclin K levels at 0.1 to 10 mg/kg, ip measured after 24 hrs by immunoblotting analysis", "assay_type": "functional, organism-based", "conditions": "dose 0.1-10 mg/kg"}, "[26]": {"test_system": "VFN-D2", "assay": "In vivo induction of degradation of cyclin K in patient-derived VFN-D2 cells xenografted in NSG mouse assessed as reduction in CDK12 levels at 0.1 to 10 mg/kg, ip measured after 24 hrs by immunoblotting analysis", "assay_type": "functional, organism-based", "conditions": "dose 0.1-10 mg/kg"}, "[27]": {"test_system": "MINO", "assay": "Induction of degradation of cyclin K in human MINO cells coexpressing DDB1 with siRNA assessed as stabilization of cyclin K levels at 100 nM measured after 1 hrs by immunoblotting analysis", "assay_type": "functional, cell-based"}, "[28]": {"test_system": "MINO", "assay": "Induction of apoptosis in human MINO cells assessed as reduction in mcl-1 levels at 2.5 to 40 nM measured after 24 hrs by immunoblotting analysis", "assay_type": "functional, cell-based", "conditions": "dose 2.5-40 nM"}, "[29]": {"test_system": "MINO", "assay": "Induction of apoptosis in human MINO cells assessed as reduction in XIAP levels at 2.5 to 40 nM measured after 24 hrs by immunoblotting analysis", "assay_type": "functional, cell-based", "conditions": "dose 2.5-40 nM"}}, "note": "Active and inactive are the calls of the source. No cut-off for these calls is given here."}
{"compound": "NCCSc1nc(NCc2ccc(-n3cccn3)cc2)c2[nH]nc(C3CCC3)c2n1", "values": [{"measurement": "GI50", "setting": "[1]", "result": 10, "unit": "nM"}, {"measurement": "GI50", "setting": "[2]", "result": 10, "unit": "nM"}, {"measurement": "IC50", "setting": "[3]", "result": 4, "unit": "nM"}, {"measurement": "GI50", "setting": "[4]", "result": 15, "unit": "nM"}, {"measurement": "GI50", "setting": "[5]", "result": 20, "unit": "nM"}, {"measurement": "GI50", "setting": "[6]", "result": 11, "unit": "nM"}, {"measurement": "GI50", "setting": "[7]", "result": 465, "unit": "nM"}, {"measurement": "GI50", "setting": "[8]", "result": 55, "unit": "nM"}, {"measurement": "GI50", "setting": "[9]", "result": 28, "unit": "nM"}, {"measurement": "GI50", "setting": "[10]", "result": 54, "unit": "nM"}, {"measurement": "IC50", "setting": "[11]", "result": "> 1000", "unit": "nM"}, {"measurement": "IC50", "setting": "[12]", "result": 39, "unit": "nM"}, {"measurement": "IC50", "setting": "[13]", "result": 20, "unit": "nM"}, {"measurement": "IC50", "setting": "[14]", "result": 64, "unit": "nM"}, {"measurement": "IC50", "setting": "[15]", "result": 22, "unit": "nM"}, {"measurement": "Activity", "setting": "[16]", "result": "Dde"}, {"measurement": "Activity", "setting": "[17]", "result": "Dde"}, {"measurement": "Activity", "setting": "[18]", "result": "Dde"}, {"measurement": "Activity", "setting": "[19]", "result": "Dde"}, {"measurement": "Activity", "setting": "[20]", "result": "Dde"}, {"measurement": "Activity", "setting": "[21]", "result": "Dde"}, {"measurement": "Activity", "setting": "[22]", "result": "Dde"}, {"measurement": "Activity", "setting": "[23]", "result": "Active"}, {"measurement": "Activity", "setting": "[24]", "result": "Active"}, {"measurement": "Activity", "setting": "[25]", "result": "Active"}, {"measurement": "Activity", "setting": "[26]", "result": "Active"}, {"measurement": "Activity", "setting": "[27]", "result": "Active"}, {"measurement": "Activity", "setting": "[28]", "result": "Active"}, {"measurement": "Activity", "setting": "[29]", "result": "Active"}]}
